Experimental data reported in the NIST ThermoML archive (doi:10.1016/j.jct.2019.02.020).

Assay: mn = molality of the nth substance listed, in mol/kg
Settings: 100 kPa, Liquid; for viscosity: Falling or rolling sphere viscometry; for mass density: Vibrating tube method

O=S(=O)([O-])[O-].[O]=[V+2] [oxovanadium(IV) sulfate] + O
Settings | mass density, 293.15 K [kg/m3] | mass density, 303.15 K [kg/m3] | viscosity, 283.15 K [mPa·s] | viscosity, 288.15 K [mPa·s] | viscosity, 293.15 K [mPa·s] | viscosity, 298.15 K [mPa·s] | viscosity, 303.15 K [mPa·s] | viscosity, 308.15 K [mPa·s] | viscosity, 313.15 K [mPa·s] | viscosity, 318.15 K [mPa·s]
m1 = 0.2501 | 1034.67 | 1031.66 | 1.551 | 1.347 | 1.183 | 1.049 | 0.9378 | 0.8442 | 0.764 | 0.6958
m1 = 0.5 | 1069.8 | 1066.39 | 1.861 | 1.61 | 1.409 | 1.244 | 1.108 | 0.9929 | 0.897 | 0.8143
m1 = 0.7507 | 1104.11 | 1100.34 | 2.242 | 1.932 | 1.682 | 1.479 | 1.311 | 1.171 | 1.053 | 0.9528
m1 = 0.9964 | 1136.2 | 1132.1 | 2.697 | 2.312 | 2.005 | 1.755 | 1.55 | 1.379 | 1.235 | 1.113
m1 = 1.25 | 1169.5 | 1165.09 | 3.308 | 2.816 | 2.429 | 2.115 | 1.859 | 1.646 | 1.468 | 1.319
m1 = 1.5 | 1201.04 | 1196.42 | 4.052 | 3.427 | 2.936 | 2.543 | 2.223 | 1.959 | 1.74 | 1.556
m1 = 1.75 | 1231.58 | 1226.74 | 4.966 | 4.171 | 3.548 | 3.052 | 2.66 | 2.334 | 2.064 | 1.838
m1 = 2 | 1261.16 | 1256.15 | 6.108 | 5.092 | 4.304 | 3.679 | 3.18 | 2.783 | 2.445 | 2.168
m1 = 2.249 | 1289.97 | 1284.81 | 7.543 | 6.238 | 5.238 | 4.448 | 3.824 | 3.32 | 2.916 | 2.575
m1 = 2.499 | 1317.94 | 1312.66 | 9.273 | 7.615 | 6.348 | 5.359 | 4.58 | 3.953 | 3.446 | 3.029
m1 = 2.75 | 1345.06 | 1339.67 | 11.55 | 9.405 | 7.784 | 6.524 | 5.544 | 4.758 | 4.126 | 3.608
